Test results as given in patent publication US7498336B2, “Deazaflavin compounds and methods of use thereof” (The United States of America as represented by the …, priority 2003, dated 2009).
Entries after “also recorded” stand apart in the source; their conditions may differ.

Tests used:
Format in all cases: biochemical
[1] = target: T1, Nedd4 (Homo sapiens, UniProt P46934); test: In vitro ubiquitination assay (E1+E2+E3) with unrelated E3 ligase; conditions: gel assay, FIG. 2B, 2C
T1 construct: made in house
T1 sequence (P46934 1-1319): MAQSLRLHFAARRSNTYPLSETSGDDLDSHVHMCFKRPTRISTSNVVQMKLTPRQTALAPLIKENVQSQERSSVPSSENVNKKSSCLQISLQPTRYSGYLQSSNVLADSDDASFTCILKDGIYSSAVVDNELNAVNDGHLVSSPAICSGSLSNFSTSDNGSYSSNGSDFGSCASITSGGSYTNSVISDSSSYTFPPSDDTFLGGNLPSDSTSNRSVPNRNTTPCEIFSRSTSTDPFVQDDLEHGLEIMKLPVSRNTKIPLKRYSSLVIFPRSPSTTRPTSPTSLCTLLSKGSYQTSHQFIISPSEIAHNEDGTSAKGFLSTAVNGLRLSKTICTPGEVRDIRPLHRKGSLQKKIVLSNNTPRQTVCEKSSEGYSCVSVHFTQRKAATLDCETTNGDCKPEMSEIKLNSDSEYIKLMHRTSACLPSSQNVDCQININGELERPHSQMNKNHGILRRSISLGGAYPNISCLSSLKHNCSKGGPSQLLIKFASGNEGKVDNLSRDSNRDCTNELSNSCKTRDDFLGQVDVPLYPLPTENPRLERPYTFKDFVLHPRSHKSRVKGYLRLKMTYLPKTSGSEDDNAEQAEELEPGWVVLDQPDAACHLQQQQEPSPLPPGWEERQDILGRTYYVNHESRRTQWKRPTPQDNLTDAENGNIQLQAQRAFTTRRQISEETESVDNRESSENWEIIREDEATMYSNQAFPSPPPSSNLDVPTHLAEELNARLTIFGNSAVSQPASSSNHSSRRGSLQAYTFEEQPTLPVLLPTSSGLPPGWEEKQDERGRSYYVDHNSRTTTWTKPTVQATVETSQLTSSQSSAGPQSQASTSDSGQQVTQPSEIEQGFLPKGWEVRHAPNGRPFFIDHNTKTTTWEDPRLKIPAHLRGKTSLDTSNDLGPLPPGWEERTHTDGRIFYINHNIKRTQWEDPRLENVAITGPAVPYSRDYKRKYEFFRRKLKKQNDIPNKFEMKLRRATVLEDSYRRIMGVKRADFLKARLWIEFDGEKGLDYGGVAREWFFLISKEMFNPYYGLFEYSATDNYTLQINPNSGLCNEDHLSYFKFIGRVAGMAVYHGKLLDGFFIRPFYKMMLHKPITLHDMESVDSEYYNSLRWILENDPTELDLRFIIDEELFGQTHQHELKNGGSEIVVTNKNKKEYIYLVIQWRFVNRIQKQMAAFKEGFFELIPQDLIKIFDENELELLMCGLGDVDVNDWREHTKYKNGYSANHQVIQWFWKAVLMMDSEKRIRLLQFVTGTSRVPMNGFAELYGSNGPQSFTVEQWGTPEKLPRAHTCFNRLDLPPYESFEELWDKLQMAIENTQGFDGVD
Procedure: 1 pmole per experimental point of bacterially expressed GST-MDM2 (or GST-Nedd) was coupled to glutathione Sepharose (GS) for 30 minutes at room temperature with tumbling, followed by 3× wash with 50 mM Tris pH 7.5. Following this, 20 μl of 1× buffer was added (40 μl 10× reaction buffer*, 40 μl 10× PCK**, 320 μl dH2O). The test compound in DMSO is then added to the desired concentration with an equal volume of DMSO used as a control. Samples are incubated with shaking for 1 hr at 23° C. To carry out the reaction, a pre-made cocktail of Rabbit E1 (Calbiochem #6620700)/UbcH5B/^32P Ub cocktail (1 μl/0.5 μl/1 μl) is added followed by 15 minutes shaking at 30° C. The reaction is terminated by addition of 8 μl 4× reducing SDS-PAGE loading buffer. After dissociating proteins from the beads at 100° C. for 2 minutes, samples are resolved on 6% PAGE followed by exposure of the dried gel to phosphor screen. Note: ^32P Ub is derived from GST-Ub that has been engineered to include a PKA phosphorylation site. This fusion protein is purified on glutathione Sepharose, phosphorylated, following this, the ^32P Ub ubiquitin is cleaved and purified away from the thrombin.

[2] = target: T2, GST-UbcH5B (Homo sapiens, UniProt P62837); test: E1+E2 assay with immobilized E2 (thiol-ester linkage with E2); conditions: FIG. 2E
T2 construct: made in house
T2 sequence (P62837 whole entry): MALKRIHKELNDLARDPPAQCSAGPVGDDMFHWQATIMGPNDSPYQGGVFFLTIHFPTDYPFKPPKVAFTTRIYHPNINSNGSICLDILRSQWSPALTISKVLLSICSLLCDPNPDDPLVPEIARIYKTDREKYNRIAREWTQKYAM
Procedure: c. E1+E2 Assay with Immobilized E2
20 pmoles of bacterially-expressed GST-UbcH5B is bound to GS for 30 minutes at room temperature after washing in 50 mM Tris pH 7.5. Twenty (20) μl of 1× reaction buffer is added. After incubation with the test compound for 1 hour at 23° C. the beads were washed with 50 mM Tris pH 7.5. This was followed by addition of Rabbit E1/32P Ub cocktail (1 μl/1 μl) followed by incubation at 1 hour shaking at 23° C. This is followed by resolution by SDS-PAGE under non-reducing conditions and exposure as above.

[3] = target: T3, p53 pre-bound to GST-MDM2 (Homo sapiens, UniProt Q00987); test: In vitro p53 ubiquitination assay; conditions: cellular p53 pre-bound to GST-MDM2, FIG. 2G
T3 construct: made in house; host or cells: GST-MDM2: bacteria; p53: SaOS-p53 inducible cells
T3 sequence (Q00987 whole entry): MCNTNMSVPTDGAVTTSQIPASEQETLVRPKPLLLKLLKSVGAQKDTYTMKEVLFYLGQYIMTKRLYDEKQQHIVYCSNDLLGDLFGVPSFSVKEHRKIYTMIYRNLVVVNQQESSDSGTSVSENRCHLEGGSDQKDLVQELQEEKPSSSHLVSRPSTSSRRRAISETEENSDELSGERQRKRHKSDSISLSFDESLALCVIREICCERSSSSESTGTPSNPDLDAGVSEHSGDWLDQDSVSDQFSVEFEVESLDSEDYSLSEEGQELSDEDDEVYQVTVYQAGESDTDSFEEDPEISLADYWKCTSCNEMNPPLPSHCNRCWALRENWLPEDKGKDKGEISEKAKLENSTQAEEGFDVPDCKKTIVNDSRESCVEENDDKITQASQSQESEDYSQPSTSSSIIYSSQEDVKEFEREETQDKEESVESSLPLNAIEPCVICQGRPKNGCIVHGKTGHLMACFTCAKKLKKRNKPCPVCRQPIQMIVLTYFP
T3 sequence (P04637 whole entry partner): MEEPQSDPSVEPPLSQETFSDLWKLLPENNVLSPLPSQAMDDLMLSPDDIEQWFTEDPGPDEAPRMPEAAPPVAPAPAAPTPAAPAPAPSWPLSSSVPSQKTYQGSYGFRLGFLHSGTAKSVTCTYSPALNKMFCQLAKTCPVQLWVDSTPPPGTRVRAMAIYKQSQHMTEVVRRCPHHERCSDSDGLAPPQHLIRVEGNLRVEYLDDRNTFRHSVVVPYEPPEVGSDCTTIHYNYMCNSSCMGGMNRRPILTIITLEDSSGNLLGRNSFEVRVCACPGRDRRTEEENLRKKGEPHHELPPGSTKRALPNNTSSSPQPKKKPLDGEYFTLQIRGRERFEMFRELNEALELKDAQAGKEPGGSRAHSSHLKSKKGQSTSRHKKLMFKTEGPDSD
Procedure: d. In Vitro R53 Ubiguitination Assay
p53 protein from SaOS-p53 inducible cell lysate was purified from cells using GST-MDM2 (5 pmol) pre-bound to GS beads. Samples were then incubated with test compounds as above. Subsequently 2 μl rabbit E1, 1 μl UbcH5b, and 10 μg of ubiquitin were added. After reaction for 15 min at 23° C., samples were subject to SDS-PAGE under reducing conditions, transferred to nitrocellulose membranes and immunoblotted with anti-p53 (DO-1) followed by ECL using standard techniques.

## O=c1nc2n(-c3cccc(Cl)c3)c3ccc([N+](=O)[O-])cc3cc-2c(=O)[nH]1 [Compound 98C07, 10-(-3-chloro-phenyl)-7-nitro-10H-pyrimido[4,5-b]quinoline-2,4-dione]
[1]
  selectivity of inhibition of MDM2 versus unrelated E3 ligase Nedd4: shows some selectivity as an inhibitor of MDM2; also recorded: specificity of MDM2
[2]
  inhibition of thiol-ester linkage of ubiquitin with E2: inhibits neither thiol-ester linkages of ubiquitin with E1 nor E2
[3]
  inhibition of p53 ubiquitination by MDM2: significant dose-dependent inhibition of p53 ubiquitination
